The values below come from patent publication US6538029B1, “Methods for treatment of renal cell carcinoma” (Cell Pathways, priority 2002, dated 2003).

Like-named read-outs stand apart in the source and are kept apart here.

Experiment [1] addresses cloned and expressed human PDE10 (Homo sapiens, UniProt Q9Y233). Conditions: cited from earlier work; for IC50 / Published IC50s on cloned PDE10, cAMP / Published IC50s on cloned PDE10, cGMP: literature values.
Experiment [2] concerns the target PDE10 from 786-O (Homo sapiens, UniProt Q9Y233). In words: Inhibition and kinetics of PDE10 from 786-O (pooled fractions of the center peak). In kind it is biochemical. Conditions: for IC50: pooled center-peak fractions. The procedure: (§1) Fractions were pooled from a 786-O profile from the center peak.
as §1
(§2) Protein assays were determined using the Bio-Rad DC Protein Assay. A nonlinear regression to the Michalis-Menten equation in Prism was used to determine the Km and Vmax.
as §2

Experiment [3] concerns 786-O cells. In words: Apoptosis on 786-O cells (Roche Cell Death Assay). In kind it is cell-based, human. Conditions: 48 hours with drug. As to the method: Testing of PDE10-Inhibiting Compounds for Apoptosis on Renal Carcinoma (786-O) Cells. […] After 24 hours, the media was removed and the same media containing the drug was added to the cells (0.1% DMSO final concentration). After 48 hours, apoptosis was detected using the Roche Cell Death Assay.

Experiment [4] has as its system 786-O cells. Format: cell-based. The conditions noted are these: Homo sapiens, 786-0, 144 h; 6 days with drug, sulforhodamine B. As to the method:
Testing of Neoplastic Cell Growth Inhibition of PDE10-Inhibiting Compounds on Renal Cell Carcinoma (786-O) Cells. […] After 24 hours, the media was removed, and the same media containing the drug was added to the cells (0.1% DMSO final concentration).

Setting [5] is: read-out: Published IC50s on cloned PDE10, cAMP, cAMP as substrate.
Where [6] appears, read: read-out: μM IC50s on PDE10 from 786-O, cAMP, cAMP substrate at 0.09 μM, table: N = 2 average, EHNA, Milrinone, Rolipram N = 1.
Where [7] appears, read: read-out: Published IC50s on cloned PDE10, cGMP, cGMP as substrate.
[8] abbreviates: read-out: μM IC50s on PDE10 from 786-O, cGMP, cGMP substrate at 5.5 μM, table: N = 2 average, EHNA, Milrinone, Rolipram N = 1.
Where [9] appears, read: μM IC50s on PDE10 from 786-O, cAMP, cAMP substrate at 0.09 μM, table: N = 2 average, EHNA, Milrinone, Rolipram N = 1.
[10] abbreviates: μM IC50s on PDE10 from 786-O, cGMP, cGMP substrate at 5.5 μM, table: N = 2 average, EHNA, Milrinone, Rolipram N = 1.

cloned and expressed human PDE10, sequence (Q9Y233 1-779 isoform Q9Y233-1): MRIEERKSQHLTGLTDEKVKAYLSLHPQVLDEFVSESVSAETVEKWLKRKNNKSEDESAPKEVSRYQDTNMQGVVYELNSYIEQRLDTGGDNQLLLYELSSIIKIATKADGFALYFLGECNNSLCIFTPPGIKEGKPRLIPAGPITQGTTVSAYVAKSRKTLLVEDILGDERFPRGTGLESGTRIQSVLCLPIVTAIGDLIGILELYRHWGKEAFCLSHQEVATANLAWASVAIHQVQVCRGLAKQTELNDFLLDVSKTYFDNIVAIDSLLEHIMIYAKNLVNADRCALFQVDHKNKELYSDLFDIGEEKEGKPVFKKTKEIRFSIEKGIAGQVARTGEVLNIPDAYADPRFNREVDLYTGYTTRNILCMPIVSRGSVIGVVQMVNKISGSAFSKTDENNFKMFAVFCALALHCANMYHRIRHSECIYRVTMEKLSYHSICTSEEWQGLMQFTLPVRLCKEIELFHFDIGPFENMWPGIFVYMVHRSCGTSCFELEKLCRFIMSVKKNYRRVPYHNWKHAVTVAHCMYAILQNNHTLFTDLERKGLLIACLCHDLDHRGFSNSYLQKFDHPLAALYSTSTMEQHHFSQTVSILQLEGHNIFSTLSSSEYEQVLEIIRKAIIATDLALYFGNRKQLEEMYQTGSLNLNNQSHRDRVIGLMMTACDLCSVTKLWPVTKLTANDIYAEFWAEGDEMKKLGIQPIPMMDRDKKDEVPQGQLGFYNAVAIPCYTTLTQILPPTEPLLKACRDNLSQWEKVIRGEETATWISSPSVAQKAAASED
PDE10 from 786-O, sequence (Q9Y233 290-1055 limits assumed): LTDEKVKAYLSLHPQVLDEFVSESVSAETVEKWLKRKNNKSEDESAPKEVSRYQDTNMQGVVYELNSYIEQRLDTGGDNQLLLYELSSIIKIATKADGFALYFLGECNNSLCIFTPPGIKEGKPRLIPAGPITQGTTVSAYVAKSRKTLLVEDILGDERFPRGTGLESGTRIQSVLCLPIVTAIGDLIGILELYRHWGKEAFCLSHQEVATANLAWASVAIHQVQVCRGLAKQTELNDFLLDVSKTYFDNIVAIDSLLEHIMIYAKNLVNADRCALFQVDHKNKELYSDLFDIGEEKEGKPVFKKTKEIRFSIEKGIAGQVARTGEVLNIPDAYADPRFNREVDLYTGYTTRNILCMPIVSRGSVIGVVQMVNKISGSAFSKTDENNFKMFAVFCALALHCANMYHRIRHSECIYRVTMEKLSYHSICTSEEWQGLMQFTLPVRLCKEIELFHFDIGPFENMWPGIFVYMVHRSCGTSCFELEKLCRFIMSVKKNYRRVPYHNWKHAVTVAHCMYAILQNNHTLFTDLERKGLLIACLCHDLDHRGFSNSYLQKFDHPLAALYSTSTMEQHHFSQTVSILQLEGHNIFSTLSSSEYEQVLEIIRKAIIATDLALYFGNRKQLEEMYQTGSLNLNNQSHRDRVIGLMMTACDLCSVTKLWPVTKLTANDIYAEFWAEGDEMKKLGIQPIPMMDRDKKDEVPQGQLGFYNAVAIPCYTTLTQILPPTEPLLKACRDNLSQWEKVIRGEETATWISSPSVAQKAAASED

In the case of `Nc1nc2c(ncn2[C@@H]2O[C@@H]3COP(=O)(O)O[C@H]3[C@H]2O)c(=O)[nH]1` [cGMP, cyclic 3′,5′-guanosine monophosphate], the “Vmax ratio of cGMP/cAMP, cloned and expressed PDE10” value in experiment [1] (Fujishige et al. 1999) is given as 2.2. Further, the Michaelis-Menten constant (Km) in experiment [1] (Fujishige et al. 1999, read-out: Km published for cloned and expressed PDE10) was 7.2 µM; in experiment [2] (Michaelis-Menten plot, 30 min at 30° C., FIG. 4, 6, read-out: Km for the 786-O PDE), 6.5 µM; in experiment [2] (pooled fractions 57-75 of PDE10, read-out: Km, average of three values (stdev in parenthesis)), 5.5 µM. The IC50 in experiment [1] (setting [5]) is 14 µM; in experiment [2] (setting [6]) it was 5.2 µM. For the same molecule, the Vmax in experiment [2] (pooled center-peak fraction) turned out to be 461 pmol/min/mg. Further, the “Vmax ratio of cGMP/cAMP” value in experiment [2] (times higher than Vmax for cAMP) stood at 2.4.

Take `O=C(O)C1CCN(c2nc(NCc3ccc4c(c3)OCO4)c3cc(Cl)ccc3n2)CC1` [Example E4021]: the IC50 in experiment [1] (setting [5]) is 7.2 µM; in experiment [1] (setting [7]), 4.2 µM; in experiment [2] (setting [6]) it was 2.8 µM; in experiment [2] (setting [8]) it was 3.2 µM.

For the molecule `CCOC(=O)C1=C[C@]2(CC)CCCN3CCc4c(n1c1ccccc41)[C@@H]32` [Vinpocetine], in experiment [1] (cAMP as substrate), the “Published IC50s on cloned PDE10, cAMP” value was 77 µM. Moreover, the “Published IC50s on cloned PDE10, cGMP” value in experiment [1] (cGMP as substrate) is 73 µM. In addition, the IC50 in experiment [2] (setting [9]) came to 38 µM; in experiment [2] (setting [10]) it was 45 µM.

As to `CC1=C(CC(=O)O)c2cc(F)ccc2/C1=C\c1ccc(S(C)(=O)=O)cc1` [Exisulind, exisulind, reference compound], the “Induction of apoptosis in the 786-O cells” value in experiment [3] was “did not show significant induction of apoptosis”. Moreover, the IC50 in experiment [4] was determined as 273 µM; in experiment [2] (IC50 on PDE10 from 786-O (inhibition of cGMP PDE activity), FIG. 8, 9), 134 µM.

In the case of `CC(C)Cn1c(=O)n(C)c(=O)c2[nH]cnc21` [IBMX], the IC50 is 17 µM in experiment [1] (setting [5]), 11 µM in experiment [1] (setting [7]), 4.5 µM in experiment [2] (setting [6]) and 6.3 µM in experiment [2] (setting [8]).

Take `CCCOc1ccccc1-c1nc2nn[nH]c2c(=O)[nH]1` [Zaprinast]: the “Published IC50s on cloned PDE10, cGMP” value in experiment [1] (cGMP as substrate) is 14 µM. Besides, the IC50 amounted to 13 µM in experiment [2] (setting [9]) and 17 µM in experiment [2] (setting [10]).

Turning to `COc1cc(/C=C2/C(C)=C(CC(=O)NCc3ccccc3)c3cc(F)ccc32)cc(OC)c1OC` [Compound A, 1 H-indene-3-acetamide, 5-fluoro-2-methyl-N-(phenylmethyl)-1-[(3,4,5-trimethoxyphenyl)methylene]-, (1Z)], the IC50 in experiment [3] (Homo sapiens, 786-0, read-out: IC50 for induction of apoptosis in the 786-O cell line) came to 0.071 µM; in experiment [4], 0.03 µM; in experiment [2] (IC50 on PDE10 from 786-O (inhibition of cGMP PDE activity), FIG. 10) it was 0.031 µM.

Turning to `CCCCCC[C@@H]([C@@H](C)O)n1cnc2c(N)ncnc21` (racemic) [EHNA], the IC50 is greater than 100 µM in experiment [1] (setting [5]), greater than 100 µM in experiment [1] (setting [7]), 60 µM in experiment [2] (setting [6]) and 46 µM in experiment [2] (setting [8]).

On to `Cc1[nH]c(=O)c(C#N)cc1-c1ccncc1` [Milrinone], for which, in experiment [1] (cAMP as substrate), the “Published IC50s on cloned PDE10, cAMP” value is greater than 100 µM. Further, the “Published IC50s on cloned PDE10, cGMP” value in experiment [1] (cGMP as substrate) is greater than 100 µM. Further, the IC50 in experiment [2] (setting [9]) came to 84 µM; in experiment [2] (setting [10]) it was 103 µM.

By Km is commonly meant the substrate concentration at which the rate is half of its maximum. One may read the Vmax as the top rate of the reaction or transport when substrate is in excess.
